Experimental data from publication PMC6235670, “An mTOR Signaling Modulator Suppressed Heterotopic Ossification of Fibrodysplasia Ossificans Progressiva” (Stem Cell Reports, 2018).

Columns and labels:
[1] = AlamarBlue viability assay in ATDC5/FOP-ACVR1; details: mouse
Experimental: Generation of ATDC5 stably expressing ACVR1. WT - or FOP-ACVR1 was inserted into doxycycline (Dox)- […]
(KW111/WT-ACVR1 or KW111/FOP-ACVR1). KW111/WT-ACVR1 or KW111/FOP-ACVR1 and PBaseII […]
FuGeneHD® (Promega) according to the manufacturer’s protocol, and the neomycin- resistant population (500 µg/mL) was selected. Further selection was performed by selecting a mCherry high positive population (< 5%) after six hours of Dox treatment, sorting it with fluorescent-activated cell sorting (FACS) using AriaII (BD) according to the manufacturer’s protocol, and designating it as ATDC5/WT-ACVR1 or ATDC5/FOP-ACVR1.
KW111 included PB, active transposable PB elements; TRE-mCMVP, Tetracycline Response Element and a minimal CMV promoter; rtTA, reverse tetracycline-controlled transactivator. PBaseII was an expression plasmid vector containing the PB transposase cDNA with optimized codon usage to human under the control […]
HTS campaign and follow-up screens. ATDC5/FOP-ACVR1 cells were plated in 96-well white plates (2,000 cells/well/40 µ L, Corning) in DMEM/F-12 supplemented with 5% (v/v) FBS. […]
37 °C under 5% CO2. After 3 days incubation, Alkaline Phosphatase activity (ALP) or AlamarBlue activity was measured using Amplite™ Colorimetric Alkaline Phosphatase Assay Kit (AAT Bioquest) or alamarBlue® Cell Viability Reagent (Thermo Fisher Scientific) according to the manufacturer’s protocol, respectively. T h e […]
was measured on POWERSCAN4 (DS Pharma Biomedical) or EnVision® Multilabel Reader (PerkinElmer).
Inhibitory effects of the screened compounds are given as percent inhibition, which was calculated using the following equation: (1-([Abs of compound] - [Abs of Min])/([Abs of Max] - [Abs of Min]))× 100, where [Abs of Max] and [Abs of Min] are the mean Abs of DMSO control and 1 µM DMH-1, respectively. The Z’ factor, which is widely used as a measure of the assay quality of each plate, was calculated using the following equation: Z’ factor = 1 - 3 × ([SD of Max] + [SD of Min])/([Abs of Max] - [Abs of Min]) (SI Appendix, Fig.
The S/B (signal-to-background) ratio was calculated using the following equation: ([Abs of Max]/[Abs of Min]) (SI Appendix, Fig. S3B).
Using ATDC5/FOP-ACVR1 cells, we performed a first screening (n=2; test compounds = 1 µM, Fig. […]

[2] = tested on: BMP-7-induced HO model mice (C57BL/6); experiment: BMP-7-induced HO model mice
Excerpt: MTOR s604 […]tt […]at […]
For X- ray images, mice were anesthetized with isoflurane (5% for induction, 2-3% for maintenance, Abbvie), immobilized and X-rayed using µFX-1000 (Fujifilm) or DX-50 (Faxitron Bioptics). µCT images were scanned using X-ray CT systems (inspeXio SMX-100CT, Shimadzu) and analyzed with TRI/3D-BON software (Ratoc System Engineering) according to the manufacturer's instructions. Four weeks after injection, the injected sites were harvested, fixed with 4% paraformaldehyde for 24 h, embedded in paraffin, and sectioned and stained […]
BMP-7-induced HO model mice. BMP -7 (2 µ g/mouse) was injected into the right gastrocnemius muscle of C57BL/6NJcl mice (6-8 weeks, male, CLEA Japan), and compounds were administered once a day, five times a week (intraperitoneal administration). Mice were analyzed 2 weeks after injection. […]

[3] = tested on: ATDC5/FOP-ACVR1 cells; experiment: ALP assay (HTS and dose-response) in ATDC5/FOP-ACVR1; type: cell-based, mouse; details: Mus musculus, same protocol as HTS (72 h)
[4] = tested on: healthy control iPSC (414C2)-derived iMSCs; experiment: Wound healing assay

SMILES: FC(F)(F)c1ccc(/C=C/c2nc(COc3ccc(CCCCn4ccnn4)cc3)co2)cc1 [TAK 165, mubritinib]
- viability at 3 days, 10 µM [1]: 117%
- body weight change compared to vehicle group ([2]; i.p. for 2 weeks, n=5): No significant differences
- BMP-7-induced HO (heterotopic bone volume) ([2]; i.p. once daily 5 times a week for 2 weeks): suppressed
- # of HO (> 20 mm3): number of mice harboring HO ([2]; i.p. once daily 5 times a week for 2 weeks, N = 5): 1/5
- IC50 [3]: 39 nM
- Relative cell migration (wound healing assay) vs DMSO ([4]; 10 nM rapamycin or 1 µM TAK165, 24 h): n.s.
- wound healing in vitro ([4]; 1 µM, 24 h): did not impair
